Test results as given in patent US20220185802A1, “BENZOXAZINE MONOMERS AND POLYMERIC COATINGS” (LUXEMBOURG INSTITUTE OF SCIENCE AND TECHNOLOGY (LIST), priority 2019, published 2022).

What was measured:
NF-κB activation = experiment: Inflammation inhibitory activity, NF-κB-inducible SEAP reporter in THP-1 cells with TNFα as inducer; assay type: cell-based, human; conditions: samples coated with polymer formed from the monomer in combination with P-e, film about 120 μm
Source text: (§1) In human, inflammation can arise through the activation of nuclear factor-kappaB (NF-κB), a pivotal transcription factor in chronic inflammatory diseases, inducing the expression of numerous inflammation related-genes such as those for tumor necrosis factor α (TNFα) and cytokines such as IL-1β, IL-10, and IL-6 or IL-8 (Medzhitov R., Nature, 2008, 454, 428-435). In the present invention, an inflammation-relevant human cell line, i.e. the monocytes THP-1 cells, are used to evaluate the potential of the coatings to reduce the inflammation. Their cytotoxicity towards are first evaluated using the resazurin reduction test (O'Brien J. et al., Eur. J. Biochem., 2000, 267, 5421-5426.) General anti-inflammatory properties are then determined using THP-1 cells transfected with a reporter plasmid expressing the secreted alkaline phosphatase (SEAP) gene under the control of an NF-κB-inducible promoter. TNFα are used as an inflammation inducer and the data are expressed as percentage inhibition of NF-κB activation. In addition, the effects of the most promising monomers is further evaluated on inflammation-related genes by real time qPCR using THP-1 cells differentiated into macrophages (Andre C. M. et al., J. Agric. Food. Chem, 2013, 61, 2773-2779) and IL-1β, IL-10, IL-6, and COX-2 as markers (Kaulmann A. et al., Mol. Nutr. Food Res., 2016, 60, 992-1005).

THP-1 cells = experiment: Pro-inflammatory activity of coated samples (FIG. 20); assay type: cell-based, human; conditions: samples coated with film derived from the compound (monomers in combination with P-e; P-e alone)
Source text: as §1

Structure (SMILES): CC=Cc1cc2c(c(OC)c1)OCN(Cc1ccco1)C2 [Monomer 12]
- inhibition of the inflammation (NF-κB activation; TNFα as inducer): ~20%
- anti-inflammatory effect (NF-κB activation; in comparison with P-e or 13): strong anti-inflammatory effect
- pro-inflammatory properties (THP-1 cells): only the sample coated with the film derived from compound 13 shows a trend

Structure (SMILES): c1ccc2c(c1)CN(CCN1COc3ccccc3C1)CO2 [P-e, reference compound]
- pro-inflammatory properties (THP-1 cells): only the sample coated with the film derived from compound 13 shows a trend
